Measured values reported in patent publication US9808448B2, “Pharmaceutical compounds and use of same in cancer and tauopathies” (THE REGENTS OF THE UNIVERSITY OF MICHIGAN, priority 2013, dated 2017).
“Also recorded” adds a separate entry of the source. Read-outs that look alike come from different tables or passages of the source.

Tests used:
MCF7 cells = assay: Combination therapy Hsp70 and Hsp90, MCF7 growth; format: cell-based; conditions: with 1 nM rapamycin or 1 nM 17-AAG
Procedure: The cells were then treated with the Hsp70 inhibitor JG-83 or JG-84 alone or in combination with the Hsp90 inhibitor 1 nM rapamycin or 1 nM 17-AAG.

[1] = in vivo; cited from earlier work
[2] = Phase I, anti-cancer agent; cited from earlier work
[3] = biological target: prokaryotic Hsp70 (DnaK) binding to denatured luciferase (Escherichia coli, UniProt P0A6Y8); assay: Luciferase binding assay; format: biochemical; conditions: 50 μM
Procedure: Next, the effect of chaperone functions by binding of YM-08 to Hsp70 was investigated. […] This profile is shared with other allosteric Hsp70 inhibitors. As another test of chaperone function, the effects of the compounds on the binding of Hsp70 to a misfolded protein were measured. In previous work, MKT-077 stabilized the interaction between prokaryotic Hsp70 (DnaK) and denatured luciferase. Briefly, this assay involves immobilizing unfolded luciferase in microtiter plates and measuring binding to DnaK. […] To explore whether YM-08 might also enhance binding of Hsp70 to a more physiologically relevant substrate, binding of tau to immobilized human Hsc70 was measured.
Binding of prokaryotic Hsp70 (DnaK) to denatured luciferase was measured as previously described, in e.g., Miyata, et al., J. Biomol. Screen, 15:1211-1219 (2010). Briefly, firefly luciferase (0.2 mg/mL) was proteolyzed with trypsin and immobilized in 96-well microtiter plates. After washing, the binding of luciferase to DnaK (500 nM) was measured using an anti-DnaK antibody and HRP secondary antibody. A similar strategy was used to monitor binding of human Hsc70 to tau, as previously described in Thompson, et al., ACS Chem. Biol., 7:1677-1686 (2012).

[4] = tested on: MCF-7, MCF-10A and MB-MDA-231 cells; assay: MTT assays, three cell lines; format: cell-based; conditions: range over MCF-7, MCF-10A and MB-MDA-231 cells
Procedure: YM-08 was tested whether it might retain the anti-cancer activity of MKT-077.

human Hsc70 (HSPA8) = biological target: T1, human Hsc70 (HSPA8) (Homo sapiens, UniProt P11142); assay: ELISA competitive binding assay (biotinylated MKT-077 displacement)
T1 construct: made in house
Procedure: Binding of MKT-077 analogs to immobilized Hsp70 was evaluated using a competitive ELISA. In this established assay, a biotinylated version of MKT-077 is bound to immobilized human Hsc70 (HSPA8) and potential competitors are tested for their ability to block the interaction.
A sample of Hsc70 (50 μL; 0.06 mg/mL) was immobilized in clear flat-bottom 96-well plate in MES buffer (50 mM 2-(N-morpholino)ethanesulfonic acid, pH 5.2) at 37° C. overnight. After discarding the excess protein solution, each well was washed three times with 150 μL TBS-T buffer (25 mM Tris, 140 mM NaCl, 2.7 mM KCl, 0.01% Tween-20, pH 7.4). Then, 1 μL of compound (1% DMSO) was diluted into 24 μL of binding buffer (100 mM Tris, 20 mM KCl, 6 mM MgCl2, 0.01% Triton-X100) and incubated at room temperature for 30 min. Biotin labeled MKT-077 (final concentration 1 μM; 25 μL) was subsequently added into each well and the mixture was incubated at room temperature for another 3 hrs. The wells were washed with 150 μL TBS-T buffer three times prior to blocking with 100 μL 3% bovine serum albumin (BSA) in TBS-T buffer for 5 min at room temperature. After the removal of the BSA solution, 50 μL of HRP-streptavidin (Pierce Biotechnology, 1:50000 TBS-T dilution) solution was added and the plates were incubated at room temperature for 1 hr. The HRP-streptavidin solution was removed and wells were washed three times with 150 μL TBS-T. […] substrate (Cell Signaling Technology 100 μL) was added into each well and incubated at room temperature until a visible blue color was shown in wells (about 20 min). 1 M HCl stop solution was then added into each well to yield a yellow solution and the absorbance at 450 nm was recorded on SpectraMax M5 (Molecular Devices).

[5] = tested on: human 4R0N tau in HeLaC3 cells; assay: Tau levels in HeLaC3 cells by Western blot; format: cell-based
Procedure: To determine whether YM-08 might also accelerated tau degradation, HeLaC3 cells, which stably over-express human 4R0N tau, were treated with compound. After 24 hours, the levels of phosphorylated (p396/404) tau and total tau were measured by Western blot. […] This cellular activity is not as dramatic as that of MKT-077, which reduced tau levels by >80% at 30 μM (FIG. 4D); however, reducing tau by only about 50% is predicted to provide benefits in some AD models.

[6] = Initial pharmacokinetics and biodistribution in CD1 mice; format: in vivo, mouse; conditions: i.v., YM-01 20 mg/kg saline, YM-08 10 mg/kg 10% DMSO/saline
Procedure: (A) Initial pharmacokinetics and biodistribution of YM-01 and YM-08. Compounds were suspended in buffered saline (YM-01) or 10% DMSO/saline (YM-08) and injected at 20 and 10 mg/kg, respectively. YM-08 was not soluble in saline or 10% DMSO/saline at 20 mg/kg. The levels of YM-08 in the brain at 1 hr after injection could not be accurately determined because its value was outside the calibration curve. […] Results are average from data acquired from three female mice. (C) YM-08 maintains a B/P ratio of nearly 0.25 for 18 hrs.
The initial pharmacokinetics (PK) of YM-01 and YM-08 were tested in CD1 mice. […] After a single 6.6 mg/kg dose delivered i.v., the peak brain concentration of YM-08 was 4 μg/g (FIG. 7B) and the ratio in the brain:plasma (B/P) ratio was approximately 0.25 for 18 hrs (FIG. 7C). […] It is not yet clear how much tau levels need to be reduced to achieve therapeutic effects in disease models, but the area-under-the-curve (AUCinf) for YM-08 in the brain was 0.26 μg·hr/g and the AUCinf in plasma was 13.6 μg·hr/mL.

[7] = Liver microsome stability; format: in vitro ADME; conditions: human liver microsomes
MCF-7 = assay: Cancer activity screen (MTT cell survival), MCF-7; format: cell-based; conditions: especially in MCF7 cells
[8] = read-out: IC50, inhibition of biotinylated MKT-077 binding to immobilized Hsc70, competitive ELISA, biotin labeled MKT-077 1 μM
[9] = competitive ELISA, biotin labeled MKT-077 1 μM

Chain of prokaryotic Hsp70 (DnaK) binding to denatured luciferase (P0A6Y8 whole entry): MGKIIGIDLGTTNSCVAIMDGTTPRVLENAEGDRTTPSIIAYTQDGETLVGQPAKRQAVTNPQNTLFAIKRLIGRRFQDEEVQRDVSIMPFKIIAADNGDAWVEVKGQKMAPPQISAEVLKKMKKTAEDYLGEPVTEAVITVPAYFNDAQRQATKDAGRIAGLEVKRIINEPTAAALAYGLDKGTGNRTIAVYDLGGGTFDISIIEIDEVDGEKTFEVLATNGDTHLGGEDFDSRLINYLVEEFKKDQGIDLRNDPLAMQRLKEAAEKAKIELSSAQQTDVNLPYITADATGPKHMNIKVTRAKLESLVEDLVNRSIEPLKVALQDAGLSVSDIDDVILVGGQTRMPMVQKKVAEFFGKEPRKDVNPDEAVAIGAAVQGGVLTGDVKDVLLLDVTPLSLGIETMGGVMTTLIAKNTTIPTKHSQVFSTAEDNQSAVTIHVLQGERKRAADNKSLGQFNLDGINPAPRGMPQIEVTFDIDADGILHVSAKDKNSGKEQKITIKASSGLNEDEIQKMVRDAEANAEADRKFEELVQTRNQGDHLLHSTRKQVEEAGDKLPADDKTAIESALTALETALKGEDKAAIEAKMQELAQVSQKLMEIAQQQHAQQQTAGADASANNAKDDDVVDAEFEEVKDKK
T1 sequence (P11142 whole entry): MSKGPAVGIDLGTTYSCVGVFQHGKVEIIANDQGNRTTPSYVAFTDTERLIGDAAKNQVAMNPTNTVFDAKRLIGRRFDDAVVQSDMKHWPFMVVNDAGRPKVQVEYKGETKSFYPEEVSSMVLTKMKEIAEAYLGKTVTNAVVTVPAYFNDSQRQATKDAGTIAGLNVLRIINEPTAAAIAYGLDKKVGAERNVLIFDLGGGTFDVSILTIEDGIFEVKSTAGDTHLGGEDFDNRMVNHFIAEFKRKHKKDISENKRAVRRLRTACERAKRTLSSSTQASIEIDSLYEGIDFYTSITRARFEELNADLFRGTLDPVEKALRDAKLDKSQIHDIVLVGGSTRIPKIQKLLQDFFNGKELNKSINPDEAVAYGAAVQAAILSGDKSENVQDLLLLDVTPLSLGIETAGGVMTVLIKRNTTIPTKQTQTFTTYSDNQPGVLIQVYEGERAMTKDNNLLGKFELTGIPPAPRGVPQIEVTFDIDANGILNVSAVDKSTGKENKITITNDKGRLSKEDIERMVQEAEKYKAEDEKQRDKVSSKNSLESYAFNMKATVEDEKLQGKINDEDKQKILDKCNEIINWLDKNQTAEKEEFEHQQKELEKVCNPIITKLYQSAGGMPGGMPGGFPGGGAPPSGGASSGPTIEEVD

CCn1c(=O)/c(=C2\Sc3cccc(F)c3N2C)s/c1=C\c1scc[n+]1Cc1ccccc1 [JG-83]
IC50 in combination versus Hsp70 inhibitor alone (MCF7 cells): decreased IC50 concentrations

CCn1c(=O)/c(=C2\Sc3cccc(Cl)c3N2C)s/c1=C\c1scc[n+]1Cc1ccccc1 [JG-84]
IC50 in combination versus Hsp70 inhibitor alone (MCF7 cells): decreased IC50 concentrations

CCn1c(=O)/c(=C2\Sc3ccccc3N2C)s/c1=C\c1cccc[n+]1CC [MKT-077, 1-ethyl-2-((Z)-((E)-3-ethyl-5-(3-methylbenzo[d]thiazol-2(3H)-ylidene)-4-oxothiazolidin-2-ylidene)methyl)pyridin-1-ium]
BBB crossing [1]: does not cross the BBB | kidney accumulation [1]: dramatic accumulation of MKT-077 in the kidney | clinical toxicity [2]: nephrotoxicity in a subset of patients | enhancement of DnaK binding to denatured luciferase [3]: about 30% | EC50 [4]: 1.4 to 3 µM | IC50 (human Hsc70 (HSPA8)): 6.4 ± 0.23 µM | reduction of tau levels ([5]; 30 μM): > 80%

CCn1c(=O)/c(=C2\Sc3ccccc3N2C)s/c1=C\c1cccc[n+]1C [YM-01, 2-((Z)-((E)-3-ethyl-5-(3-methylbenzo[d]thiazol-2(3H)-ylidene)-4-oxothiazolidin-2-ylidene)methyl)-1-methylpyridin-1-ium]
kidney distribution ([6]; 0.16 and 1 hrs): prevalent in the kidney | brain penetration ([6]; 0.16 hrs): lacked detectable brain penetration | t1/2 [7]: approximately 4 minutes | enhancement of DnaK binding to denatured luciferase [3]: about 30% | IC50 (human Hsc70 (HSPA8); [8]): 3.2 ± 0.23 µM

CCN1C(=O)/C(=C2\Sc3ccccc3N2C)SC1=S [YM-02, (E)-3-ethyl-5-(3-methylbenzo[d]thiazol-2(3H)-ylidene)-2-thioxothiazolidin-4-one]
anti-cancer activity (MCF-7): residual activity | activity in luciferase binding assay [3]: reduced activity; also recorded: some residual activity | IC50 (human Hsc70 (HSPA8); [9]): > 50 µM | anti-tau activity in cells [5]: some residual activity

CCN1C(=O)CS/C1=C\c1ccccn1 [YM-07, (Z)-3-ethyl-2-(pyridin-2-ylmethylene)thiazolidin-4-one]
anti-cancer activity (MCF-7): residual activity | activity in luciferase binding assay [3]: reduced activity | IC50 (human Hsc70 (HSPA8); [9]): ~5.8 µM | affinity fold worse than YM-08 (human Hsc70 (HSPA8); ratio of ELISA IC50): about 10 fold

(E)-3-ethyl-5-(3-methylbenzo[d]thiazol-2(3H)-ylidene)-2-(methylthio)-4-oxo-4,5-dihydrothiazol-3-ium [YM-03]
activity in luciferase binding assay [3]: reduced activity

(Z)-2-((3-ethyl-4-oxothiazolidin-2-ylidene)methyl)-1-methylpyridin-1-ium [YM-04]
activity in luciferase binding assay [3]: reduced activity | affinity fold worse than YM-07 (human Hsc70 (HSPA8); ratio of ELISA IC50): about 2 fold | IC50 (human Hsc70 (HSPA8); [8]): ~15 µM
